In publication PMC10138389, “Study of Lipophilicity and ADME Properties of 1,9-Diazaphenothiazines with Anticancer Action” (International Journal of Molecular Sciences, 2023):

Tested on: glioblastoma SNB-19
Assay: not given
Set-up: method as in PMID 31307242, PMID 33807874
Settings: cited from earlier work
For `c1cnc2c(c1)Sc1cccnc1N2` [Compound 1, 10H-1,9-diazaphenothiazine], the “anticancer activity against other lines” value is given as “inactive”.

Tested on: not given
Assay: not given
Settings: standards; cited from earlier work
For `CC(=O)Nc1ccccc1` [I, acetanilide, reference compound], the “log P TLC (logPlit.)” value is given as 1.21 [22]. In the case of `CC(=O)c1ccc(Br)cc1` [III, 4-bromoacetophenone, reference compound], the “log P TLC (logPlit.)” value is given as 2.43 [23]. In the case of `c1ccc2cc3ccccc3cc2c1` [V, anthracene, reference compound], the “log P TLC (logPlit.)” value is listed as 5.53 [22].

Tested on: SNB-19 cells
Assay: not given
Set-up: method as in PMID 33807874
Settings: Annexin V; cited from earlier work
In the case of `C#CCN1c2ncccc2Sc2cccnc21` [Compound 4], the “early and late cell apoptosis populations” value is listed as “slight increase”. For `CCN(CC)CCN1c2ncccc2Sc2cccnc21` [Compound 7], the “early and late cell apoptosis populations” value is listed as “slight increase”.

Tested on: H3, TP53, CDKN1A, BCL-2, and BAX genes
Assay: not given
Set-up: method as in PMID 33807874
Settings: RT-QPCR, tested cell lines; cited from earlier work
In the case of `C#CCN1c2ncccc2Sc2cccnc21` [Compound 4], the “expression of the CDKN1A gene” value is listed as “enhanced”, the “expression of the H3 gene” value is listed as “reduced” and the “expression of the TP53 gene” value is listed as “reduced”. In the case of `CCN(CC)CCN1c2ncccc2Sc2cccnc21` [Compound 7], the “expression of the CDKN1A gene” value is given as “enhanced”, the “expression of the H3 gene” value is given as “reduced” and the “expression of the TP53 gene” value is given as “reduced”.

Tested on: melanoma C-32
Assay: not given
Set-up: method as in PMID 31307242, PMID 33807874
Settings: melanoma C-32 cell line; cited from earlier work
In the case of `c1cnc2c(c1)Sc1cccnc1N2` [Compound 1, 10H-1,9-diazaphenothiazine], the IC50 is given as 3.83 µM. In the case of `N.N.[Cl][Pt][Cl]` [cisplatin, reference compound], the IC50 is listed as 13.2 µM.

Tested on: not given
Assay: not given
Settings: 1,6-diazaphenothiazines; cited from earlier work
In the case of `c1cnc2c(c1)Nc1ncccc1S2` [1,6-Diaza A, 10H-1,6-diazaphenothiazine], the “logPTLC, 1,6-Diaza” value is listed as 2.316. In the case of `C=CCN1c2cccnc2Sc2cccnc21` [1,6-Diaza B], the “logPTLC, 1,6-Diaza” value is listed as 3.008. In the case of `C#CCN1c2cccnc2Sc2cccnc21` [1,6-Diaza C], the “logPTLC, 1,6-Diaza” value is listed as 1.574. In the case of `CN(C)CCCN1c2cccnc2Sc2cccnc21` [1,6-Diaza D], the “logPTLC, 1,6-Diaza” value is given as 1.156.

Same assay, conditions: 1,8-diazaphenothiazines; cited from earlier work
For `c1cnc2c(c1)Sc1ccncc1N2` [1,8-Diaza A], the “logPTLC, 1,8-Diaza” value is given as 1.759. For `C=CCN1c2cnccc2Sc2cccnc21` [1,8-Diaza B], the “logPTLC, 1,8-Diaza” value is given as 2.313. In the case of `C#CCN1c2cnccc2Sc2cccnc21` [1,8-Diaza C], the “logPTLC, 1,8-Diaza” value is given as 2.186. In the case of `CN(C)CCCN1c2cnccc2Sc2cccnc21` [1,8-Diaza D], the “logPTLC, 1,8-Diaza” value is listed as 1.832.

Same assay, conditions: 2,7-diazaphenothiazines; cited from earlier work
For `c1cc2c(cn1)Nc1ccncc1S2` [2,7-Diaza A], the “logPTLC, 2,7-Diaza” value is listed as 1.540. In the case of `C=CCN1c2ccncc2Sc2ccncc21` [2,7-Diaza B], the “logPTLC, 2,7-Diaza” value is listed as 1.940. In the case of `C#CCN1c2ccncc2Sc2ccncc21` [2,7-Diaza C], the “logPTLC, 2,7-Diaza” value is given as 1.654. For `CN(C)CCCN1c2ccncc2Sc2ccncc21` [2,7-Diaza D], the “logPTLC, 2,7-Diaza” value is listed as 1.940.

Same assay, conditions: 3,6-diazaphenothiazines; cited from earlier work
For `c1cnc2c(c1)Nc1ccncc1S2` [3,6-Diaza A, 10H-3,6-diazaphenothiazine], the “logPTLC, 3,6-Diaza” value is given as 0.952. For `C=CCN1c2ccncc2Sc2ncccc21` [3,6-Diaza B], the “logPTLC, 3,6-Diaza” value is listed as 1.329. For `C#CCN1c2ccncc2Sc2ncccc21` [3,6-Diaza C], the “logPTLC, 3,6-Diaza” value is given as 1.342. In the case of `CN(C)CCCN1c2ccncc2Sc2ncccc21` [3,6-Diaza D], the “logPTLC, 3,6-Diaza” value is given as 1.404.

Tested on: breast cancer MDA-MB-231
Assay: not given
Set-up: method as in PMID 31307242, PMID 33807874
Settings: cited from earlier work
In the case of `c1cnc2c(c1)Sc1cccnc1N2` [Compound 1, 10H-1,9-diazaphenothiazine], the “anticancer activity against other lines” value is given as “inactive”.

Tested on: not listed separately
Assay: experimental lipophilicity by RP-TLC (RM0, logPTLC)
Type: physicochemical
Settings: 1,9-diazaphenothiazines, comparison table
Protocol: In the next stage, experimental measurements of the lipophilicity coefficient were performed with the use of reversed-phase thin-layer chromatography RP-TLC.
The experimental RP-TLC method provided the RM retention parameter (calculated from RF value measurements) using the following equation:RM = log (1/RF − 1)(1)
Then a calibration curve was created using the same measuring conditions. […] The calibration curve was used to convert the values of the relative lipophilicity parameter RM0 of the tested hybrids into the value of the absolute lipophilicity parameter logPTLC.
The equation of the standard curve with which it was possible to convert the relative lipophilicity parameter RM0 into the absolute parameter logPTLC is presented in Figure 2.
The RP-TLC method was used to determine the experimental lipophilicity according to the literature. Modified silica gel RP 18F254S (Merck) was used as the stationary phase and a mixture of tris(hydroxymethyl)aminomethane (TRIS) (0.2 M, buffer pH = 7.4) with acetone as the mobile phase with the range of concentrations from 40 to 70% (v/v) in 5% increments. […] Spots were observed under UV light at λ = 254 nm. Each measurement was performed in triplicate and then the RF values were calculated.
With `c1cnc2c(c1)Sc1cccnc1N2` [Compound 1, 10H-1,9-diazaphenothiazine] the “logPTLC, 1,9-Diaza” value was 1.476. With `C=CCN1c2ncccc2Sc2cccnc21` [Compound 3] the “logPTLC, 1,9-Diaza” value was 1.682. With `C#CCN1c2ncccc2Sc2cccnc21` [Compound 4] the “logPTLC, 1,9-Diaza” value was 1.747. For `CN(C)CCCN1c2ncccc2Sc2cccnc21` [Compound 6], the “logPTLC, 1,9-Diaza” value was 2.080.

Same assay, conditions: RP-TLC, RP 18F254S, acetone/TRIS buffer pH 7.4
For `c1cnc2c(c1)Sc1cccnc1N2` [Compound 1, 10H-1,9-diazaphenothiazine], the “−b (slope of RM = RM0 + bC)” value was 0.0205. In the case of `CN1c2ncccc2Sc2cccnc21` [Compound 2], the “−b (slope of RM = RM0 + bC)” value is reported as 0.0192. For `C=CCN1c2ncccc2Sc2cccnc21` [Compound 3], the “−b (slope of RM = RM0 + bC)” value was 0.0278. For `C#CCN1c2ncccc2Sc2cccnc21` [Compound 4], the “−b (slope of RM = RM0 + bC)” value was 0.0195. In the case of `c1ccc(CN2c3ncccc3Sc3cccnc32)cc1` [Compound 5, 10-benzyl-1,9-diazaphenothiazine], the “−b (slope of RM = RM0 + bC)” value is reported as 0.0205. For `CN(C)CCCN1c2ncccc2Sc2cccnc21` [Compound 6], the “−b (slope of RM = RM0 + bC)” value was 0.0170. In the case of `CCN(CC)CCN1c2ncccc2Sc2cccnc21` [Compound 7], the “−b (slope of RM = RM0 + bC)” value is reported as 0.0180. With `CC(CN(C)C)CN1c2ncccc2Sc2cccnc21` (stereo not shown) [Compound 8] the “−b (slope of RM = RM0 + bC)” value was 0.0228. For `c1cnc2c(c1)Sc1cccnc1N2CCN1CCCC1` [Compound 9], the “−b (slope of RM = RM0 + bC)” value was 0.0123. For `c1cnc2c(c1)Sc1cccnc1N2CCN1CCCCC1` [Compound 10], the “−b (slope of RM = RM0 + bC)” value was 0.0214. In the case of `CN1CCCCC1CCN1c2ncccc2Sc2cccnc21` (stereo not shown) [Compound 11], the “−b (slope of RM = RM0 + bC)” value is reported as 0.0211. For `CC(=O)Nc1ccccc1` [I, acetanilide, reference compound], the “−b (slope of RM = RM0 + bC)” value was 0.018. In the case of `CC(=O)c1ccccc1` [II, acetophenone, reference compound], the “−b (slope of RM = RM0 + bC)” value is reported as 0.019. In the case of `CC(=O)c1ccc(Br)cc1` [III, 4-bromoacetophenone, reference compound], the “−b (slope of RM = RM0 + bC)” value is reported as 0.033. For `O=C(c1ccccc1)c1ccccc1` [IV, benzophenone, reference compound], the “−b (slope of RM = RM0 + bC)” value was 0.034. In the case of `c1ccc2cc3ccccc3cc2c1` [V, anthracene, reference compound], the “−b (slope of RM = RM0 + bC)” value is reported as 0.044.

Same assay, conditions: RP-TLC, extrapolation to zero acetone concentration, TRIS buffer pH 7.4
For `c1cnc2c(c1)Sc1cccnc1N2` [Compound 1, 10H-1,9-diazaphenothiazine], the “RM0 (relative lipophilicity parameter)” value was 1.1970. For `CN1c2ncccc2Sc2cccnc21` [Compound 2], the “RM0 (relative lipophilicity parameter)” value was 1.3850. In the case of `C=CCN1c2ncccc2Sc2cccnc21` [Compound 3], the “RM0 (relative lipophilicity parameter)” value is reported as 1.4052. For `C#CCN1c2ncccc2Sc2cccnc21` [Compound 4], the “RM0 (relative lipophilicity parameter)” value was 1.4720. In the case of `c1ccc(CN2c3ncccc3Sc3cccnc32)cc1` [Compound 5, 10-benzyl-1,9-diazaphenothiazine], the “RM0 (relative lipophilicity parameter)” value is reported as 1.7877. In the case of `CN(C)CCCN1c2ncccc2Sc2cccnc21` [Compound 6], the “RM0 (relative lipophilicity parameter)” value is reported as 1.8096. For `CCN(CC)CCN1c2ncccc2Sc2cccnc21` [Compound 7], the “RM0 (relative lipophilicity parameter)” value was 1.7934. With `CC(CN(C)C)CN1c2ncccc2Sc2cccnc21` (stereo not shown) [Compound 8] the “RM0 (relative lipophilicity parameter)” value was 1.8961. In the case of `c1cnc2c(c1)Sc1cccnc1N2CCN1CCCC1` [Compound 9], the “RM0 (relative lipophilicity parameter)” value is reported as 1.9434. In the case of `c1cnc2c(c1)Sc1cccnc1N2CCN1CCCCC1` [Compound 10], the “RM0 (relative lipophilicity parameter)” value is reported as 1.9781. In the case of `CN1CCCCC1CCN1c2ncccc2Sc2cccnc21` (stereo not shown) [Compound 11], the “RM0 (relative lipophilicity parameter)” value is reported as 1.9988. With `CC(=O)Nc1ccccc1` [I, acetanilide, reference compound] the “RM0 (relative lipophilicity parameter)” value was 1.011. For `CC(=O)c1ccc(Br)cc1` [III, 4-bromoacetophenone, reference compound], the “RM0 (relative lipophilicity parameter)” value was 2.281. In the case of `c1ccc2cc3ccccc3cc2c1` [V, anthracene, reference compound], the “RM0 (relative lipophilicity parameter)” value is reported as 3.588.

Same assay, conditions: pH 7.4; RM0 converted with the calibration curve of standards I–V
`c1cnc2c(c1)Sc1cccnc1N2` [Compound 1, 10H-1,9-diazaphenothiazine] gave a chromatographic logP of 1.48. With `CN1c2ncccc2Sc2cccnc21` [Compound 2] the chromatographic logP was 1.66. With `C=CCN1c2ncccc2Sc2cccnc21` [Compound 3] the chromatographic logP was 1.68. In the case of `C#CCN1c2ncccc2Sc2cccnc21` [Compound 4], the chromatographic logP is reported as 1.75. With `c1ccc(CN2c3ncccc3Sc3cccnc32)cc1` [Compound 5, 10-benzyl-1,9-diazaphenothiazine] the chromatographic logP was 2.06. With `CN(C)CCCN1c2ncccc2Sc2cccnc21` [Compound 6] the chromatographic logP was 2.08. `CCN(CC)CCN1c2ncccc2Sc2cccnc21` [Compound 7] gave a chromatographic logP of 2.06. `CC(CN(C)C)CN1c2ncccc2Sc2cccnc21` (stereo not shown) [Compound 8] showed a chromatographic logP of 2.17. With `c1cnc2c(c1)Sc1cccnc1N2CCN1CCCC1` [Compound 9] the chromatographic logP was 2.21. With `c1cnc2c(c1)Sc1cccnc1N2CCN1CCCCC1` [Compound 10] the chromatographic logP was 2.25. `CN1CCCCC1CCN1c2ncccc2Sc2cccnc21` (stereo not shown) [Compound 11] gave a chromatographic logP of 2.27.
